Measured values reported in patent US5143927A, “3-(thiazolidone, oxazolidinone, imidazolidinone)-indoles as antiinflammatory agents” (Warner-Lambert Company, priority 1991, dated 1992).
Where two headings read alike, the source gives them in different places.

Columns and labels:
5-lipoxygenase = target: T1, 5-lipoxygenase (Rattus norvegicus, UniProt P12527); test: ARBL whole cell 5-lipoxygenase assay (inhibition of LTB4 formation in RBL-1 cells); type: cell-based; conditions: for IC50: A23187 (5 μM) stimulated, LTB4 formation; for inhibition at 10 µM: A23187 stimulated
T1 construct: endogenous in cells; host or cells: RBL-1 (rat basophilic leukemia cells, from the American Type Culture Collection)
T1 sequence (P12527 1-673): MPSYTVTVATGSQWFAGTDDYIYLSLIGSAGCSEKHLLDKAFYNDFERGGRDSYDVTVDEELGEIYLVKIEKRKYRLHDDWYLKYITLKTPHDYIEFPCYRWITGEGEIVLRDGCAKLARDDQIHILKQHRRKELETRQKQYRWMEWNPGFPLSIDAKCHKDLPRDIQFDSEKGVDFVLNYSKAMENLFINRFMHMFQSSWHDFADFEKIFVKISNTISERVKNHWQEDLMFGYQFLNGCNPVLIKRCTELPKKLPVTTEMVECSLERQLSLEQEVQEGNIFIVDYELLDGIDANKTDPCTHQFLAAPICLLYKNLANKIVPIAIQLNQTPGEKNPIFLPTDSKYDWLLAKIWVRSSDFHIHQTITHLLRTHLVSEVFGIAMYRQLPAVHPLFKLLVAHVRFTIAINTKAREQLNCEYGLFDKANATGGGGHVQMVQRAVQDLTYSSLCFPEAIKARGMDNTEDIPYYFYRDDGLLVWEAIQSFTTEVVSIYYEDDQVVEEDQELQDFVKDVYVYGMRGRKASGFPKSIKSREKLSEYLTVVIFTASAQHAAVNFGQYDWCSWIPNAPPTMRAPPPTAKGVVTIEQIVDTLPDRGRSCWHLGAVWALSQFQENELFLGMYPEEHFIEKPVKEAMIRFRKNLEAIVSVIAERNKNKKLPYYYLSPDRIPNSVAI
Description: (§1) ARBL/ARBC WHOLE CELL 5-LIPOXYGENASE AND CYCLOOXYGENASE ASSAYS
(§2) The rat basophilic leukemia cell line (RBL-1) was obtained from the American Type Culture Collection (Rockville, Md.).
(§3) Radioimmunoassay (RIA) kits of LTB4 and PGF2α were obtained from Amersham (Arlington Heights, Ill.) and Seragen (Boston, Mass.), respectively.
(§4) RBL-1 cells are grown in suspension culture in Eagle's minimum essential medium supplemented with 12% fetal bovine serum at 37° C. in an incubator supplied with air 5% carbon dioxide. Cells are harvested by centrifugation. They are washed with cold phosphate buffered saline, pH 7.4 (PBS; NaCl, 7.1 g; Na2 HPO4, 1.15 g; KH2 PO4, 0.2 g; and KCl, 0.2 g/L). Cells are finally suspended in PBS containing 1.0 mM calcium at a density of 2×10^6 cells/mL. Cells are incubated […] test agent (in DMSO) (1% DMSO is without effect on arachidonic acid metabolism) for 10 minutes at room temperature. Calcium ionophore A23187 (5 μM) is added and cells are incubated for 7 minutes at 37° C. The reaction is stopped by chilling the tubes on ice for 10 minutes. Cells are separated by centrifugation and the supernatant is stored at -20° C. Aliquots (100 μL) are analyzed for LTB4 and PGF2α using radioimmunoassay kits as provided by the supplier.
(§5) Table 1 contains biochemical data for compounds of formula I obtained from this whole cell assay as amount of inhibition at 10 μM or IC50 s which are calculated as the concentration of a test compound in micromoles (μM) causing 50% inhibition of LTB4 or PGF2α formation.

cyclooxygenase = target: T2, cyclooxygenase (Rattus norvegicus, UniProt Q63921); test: ARBC whole cell cyclooxygenase assay (inhibition of PGF2α formation in RBL-1 cells); type: cell-based; conditions: for IC50: A23187 (5 μM) stimulated, PGF2α formation, read-out: ARBC, inhibition of PGF2, IC50; for inhibition at 10 µM: A23187 stimulated, read-out: ARBC, inhibition of PGF2
T2 construct: endogenous in cells; host or cells: RBL-1 (rat basophilic leukemia cells, from the American Type Culture Collection)
T2 sequence (Q63921 27-602): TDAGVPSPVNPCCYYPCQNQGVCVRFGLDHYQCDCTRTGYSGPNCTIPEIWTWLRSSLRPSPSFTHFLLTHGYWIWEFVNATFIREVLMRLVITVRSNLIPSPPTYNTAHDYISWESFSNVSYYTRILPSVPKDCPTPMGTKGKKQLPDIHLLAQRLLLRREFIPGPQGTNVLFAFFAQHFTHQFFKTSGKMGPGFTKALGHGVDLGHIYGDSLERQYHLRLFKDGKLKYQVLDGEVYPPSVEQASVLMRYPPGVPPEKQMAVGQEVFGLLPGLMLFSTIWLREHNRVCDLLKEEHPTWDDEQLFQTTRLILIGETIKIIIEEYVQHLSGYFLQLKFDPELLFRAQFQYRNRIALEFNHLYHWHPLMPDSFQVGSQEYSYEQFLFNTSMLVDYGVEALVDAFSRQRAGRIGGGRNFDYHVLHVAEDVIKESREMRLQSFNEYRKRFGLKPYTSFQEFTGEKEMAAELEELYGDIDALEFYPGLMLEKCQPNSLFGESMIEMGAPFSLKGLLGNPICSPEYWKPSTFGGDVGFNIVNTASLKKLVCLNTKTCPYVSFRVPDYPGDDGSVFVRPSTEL
Description: as §1, §2, §3, §4, §5

COc1ccc2[nH]c(C)c(/C=C3\SC(SC)=NC3=O)c2c1 [Example 1, (Z) -5-[(5 -Methoxy-2-methyl-1H -indol-3-yl)methylene]-2-(methylthio)-4(5H)-thiazolone]
IC50 (5-lipoxygenase): 8230 nM
IC50 (cyclooxygenase): 290 nM

COc1ccc2[nH]c(C)c(/C=C3\SC(NC#N)=NC3=O)c2c1 [Example 2, (Z)-[4,5-Dihydro-5-[(5-methoxy-2-methyl-1H-indol-3-yl)methylene]-4-oxo-2-thiazolyl]-cyanamide]
inhibition at 10 µM (5-lipoxygenase; class symbol, 10 μM): < 40%
inhibition at 10 µM (cyclooxygenase; class symbol, 10 μM): < 40%

CSC1=NC(=O)/C(=C/c2c(C)[nH]c3ccccc23)S1 [Example 3, (Z) -5-[(2-Methyl-1H-indol-3-yl)methylene]-2-(methylthio)-4(5H)-thiazolone]
IC50 (5-lipoxygenase): 4430 nM
IC50 (cyclooxygenase): 140 nM

COc1ccc2c(c1)c(/C=C1\SC(=S)N(CC(=O)O)C1=O)c(C)n2C(=O)c1ccc(Cl)cc1 [Example 4, (Z)-5-[[1-(4-Chlorobenzoyl)-5-methoxy-2-methyl-1H-indol-3-yl]methylene]-4-oxo-2-thioxo-3-thiazolidine acetic acid]
inhibition at 10 µM (5-lipoxygenase; inhibition at 10 μM): 90%
inhibition at 10 µM (cyclooxygenase; inhibition at 10 μM): 60%

COc1ccc2c(c1)c(/C=C1\SC(N)=NC1=O)c(C)n2C(=O)c1ccc(Cl)cc1 [Example 5, (Z)-5-[[1-(4-Chlorobenzoyl)-5-methoxy-2-methyl-1H-indol-3-yl]methylene]-2-imino-4-thiazolidinone]
inhibition at 10 µM (5-lipoxygenase; inhibition at 10 μM): 48%
inhibition at 10 µM (cyclooxygenase; class symbol, 10 μM): < 40%
